# From patent US20240043404A1 (AbbVie Inc., priority 2009, published 2024)
# Read-outs that look alike come from different tables or passages of the source.
# System: RS4;11 cells
# Assay: RS4;11 cell viability assay (CellTiter Glo);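 also: acute lymphoblastic leukemia line RS4,11, EC50 derived from percentage of viable cells after treatment relative to untreated controls, cell killing taken as a measure of Bcl-2 inhibition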
# Format: cell-based, human
# Settings: Homo sapiens, read-out: RS4
# [1] = RS4-11, 48 h, 50,000 cells per well, 10% human serum, 48 hours, 11 EC50 Values
# Method: The acute lymphoblastic leukemia (ALL) cell line RS4;11 was used as the primary human cell line to assess the cellular activity of Bcl-2 selective agents in vitro and their efficacy in vivo.
# Cell cytotoxicity EC50 values were assessed using CellTiter Glo (Promega) according to the manufacturer's recommendations. The EC50 values were determined as a percentage of viable cells following treatment compared to the untreated control cells.
Structure (SMILES),EC50 [1] [µM],"EC50 (RS4-11, Table 5, direct comparison Z=N with corresponding analogs Z=C, 11 EC50) [µM]"
"CC1(C)CCC(CN2CCN(c3ccc(C(=O)NS(=O)(=O)c4ccc(NCC5CCN(S(C)(=O)=O)C5)c([N+](=O)[O-])c4)c(Oc4cnc5[nH]ccc5c4)c3)CC2)=C(c2ccc(Cl)cc2)C1 (stereo not shown) [Example 152, 4-(4-{[2-(4-chlorophenyl)-4,4-dimethylcyclohex-1-en-1-yl]methyl}piperazin-1-yl)-N-{[4-({[1-(methylsulfonyl)pyrrolidin-3-yl]methyl}amino)-3-nitrophenyl]sulfonyl}-2-(1H-pyrrolo[2,3-b]pyridin-5-yloxy)benzamide]",0.0204,–
"CC1(C)CCC(CN2CCN(c3ccc(C(=O)NS(=O)(=O)c4cnc(OCC5(F)CCN(CC(F)F)CC5)c(Cl)c4)c(Oc4cnc5[nH]ccc5c4)c3)CC2)=C(c2ccc(Cl)cc2)C1 [Example 285, N-[(5-chloro-6-{[1-(2,2-difluoroethyl)-4-fluoropiperidin-4-yl]methoxy}pyridin-3-yl)sulfonyl]-4-(4-{[2-(4-chlorophenyl)-4,4-dimethylcyclohex-1-en-1-yl]methyl}piperazin-1-yl)-2-(1H-pyrrolo[2,3-b]pyridin-5-yloxy)benzamide]",0.0574,–
"CC1(C)CCC(CN2CCN(c3ccc(C(=O)NS(=O)(=O)c4ccc(N[C@H]5CCN(C6CCOC(C)(C)C6)C5)c([N+](=O)[O-])c4)c(Oc4cnc5[nH]ccc5c4)c3)CC2)=C(c2ccc(Cl)cc2)C1 (stereo partly drawn) [Example 133, 4-(4-{[2-(4-chlorophenyl)-4,4-dimethylcyclohex-1-en-1-yl]methyl}piperazin-1-yl)-N-[(4-{[(3S)-1-(2,2-dimethyltetrahydro-2H-pyran-4-yl)pyrrolidin-3-yl]amino}-3-nitrophenyl)sulfonyl]-2-(1H-pyrrolo[2,3-b]pyridin-5-yloxy)benzamide]",0.0319,–
"CC1(C)CCC(CN2CCN(c3ccc(C(=O)NS(=O)(=O)c4ccc(NCC5COCCN5C5CCOCC5)c([N+](=O)[O-])c4)c(Oc4cnc5[nH]ccc5c4)c3)CC2)=C(c2ccc(Cl)cc2)C1 (stereo not shown) [Example 169, 4-(4-{[2-(4-chlorophenyl)-4,4-dimethylcyclohex-1-en-1-yl]methyl}piperazin-1-yl)-N-[(3-nitro-4-{[(4-tetrahydro-2H-pyran-4-ylmorpholin-3-yl)methyl]amino}phenyl)sulfonyl]-2-(1H-pyrrolo[2,3-b]pyridin-5-yloxy)benzamide]",0.0763,–
"CO[C@H]1CC[C@@H](COc2ccc(S(=O)(=O)NC(=O)c3ccc(N4CCN(CC5=C(c6ccc(Cl)cc6)CC(C)(C)CC5)CC4)cc3Oc3cnc4[nH]ccc4c3)cc2[N+](=O)[O-])CC1 [Example 121, 2-(1H-pyrrolo[2,3-b]pyridin-5-yloxy)-4-(4-((2-(4-chlorophenyl)-4,4-dimethylcyclohex-1-enyl)methyl)piperazin-1-yl)-N-(4-((cis-4-methoxycyclohexyl)methoxy)-3-nitrophenylsulfonyl)benzamide]",0.0597,–
"CC1(C)CCC(CN2CCN(c3ccc(C(=O)NS(=O)(=O)c4ccc(NCc5ccc(OCCN6CCOCC6)cc5)c([N+](=O)[O-])c4)c(Oc4cnc5[nH]ccc5c4)c3)CC2)=C(c2ccc(Cl)cc2)C1 [Example 198, 4-(4-{[2-(4-chlorophenyl)-4,4-dimethylcyclohex-1-en-1-yl]methyl}piperazin-1-yl)-N-[(4-{[4-(2-morpholin-4-ylethoxy)benzyl]amino}-3-nitrophenyl)sulfonyl]-2-(1H-pyrrolo[2,3-b]pyridin-5-yloxy)benzamide]",0.0362,–
"CC1(C)CCC(CN2CCN(c3ccc(C(=O)NS(=O)(=O)c4ccc(OCC5(F)CCN(C6CC6)CC5)c([N+](=O)[O-])c4)c(Oc4cnc5[nH]ccc5c4)c3)CC2)=C(c2ccc(Cl)cc2)C1 [Example 173, 4-(4-{[2-(4-chlorophenyl)-4,4-dimethylcyclohex-1-en-1-yl]methyl}piperazin-1-yl)-N-({4-[(1-cyclopropyl-4-fluoropiperidin-4-yl)methoxy]-3-nitrophenyl}sulfonyl)-2-(1H-pyrrolo[2,3-b]pyridin-5-yloxy)benzamide]",0.00516,–
"CC1(C)CCC(CN2CCN(c3ccc(C(=O)NS(=O)(=O)c4cnc(NCC5CCOCC5)c(C#N)c4)c(Oc4cnc5[nH]ccc5c4)c3)CC2)=C(c2ccc(Cl)cc2)C1 [Example 106, 4-(4-{[2-(4-chlorophenyl)-4,4-dimethylcyclohex-1-en-1-yl]methyl}piperazin-1-yl)-N-({5-cyano-6-[(tetrahydro-2H-pyran-4-ylmethyl)amino]pyridin-3-yl}sulfonyl)-2-(1H-pyrrolo[2,3-b]pyridin-5-yloxy)benzamide]",0.826,–
"CC1(C)CCC(CN2CCN(c3ccc(C(=O)NS(=O)(=O)c4ccc(NCc5ccc(OC(F)F)cc5)c([N+](=O)[O-])c4)c(Oc4cnc5[nH]ccc5c4)c3)CC2)=C(c2ccc(Cl)cc2)C1 [Example 177, 4-(4-{[2-(4-chlorophenyl)-4,4-dimethylcyclohex-1-en-1-yl]methyl}piperazin-1-yl)-N-[(4-{[4-(difluoromethoxy)benzyl]amino}-3-nitrophenyl)sulfonyl]-2-(1H-pyrrolo[2,3-b]pyridin-5-yloxy)benzamide]",0.159,–
"CC1(C)CCC(CN2CCN(c3ccc(C(=O)NS(=O)(=O)c4ccc(OCC5CCOC(C)(C)C5)c([N+](=O)[O-])c4)c(Oc4cnc5[nH]ccc5c4)c3)CC2)=C(c2ccc(Cl)cc2)C1 (stereo not shown) [Example 51, 4-(4-{[2-(4-chlorophenyl)-4,4-dimethylcyclohex-1-en-1-yl]methyl}piperazin-1-yl)-N-({4-[(2,2-dimethyltetrahydro-2H-pyran-4-yl)methoxy]-3-nitrophenyl}sulfonyl)-2-(1H-pyrrolo[2,3-b]pyridin-5-yloxy)benzamide]",0.0231,–
"CC1(C)CCC(CN2CCN(c3ccc(C(=O)NS(=O)(=O)c4ccc(OCC5COCCN5)c([N+](=O)[O-])c4)c(Oc4cnc5[nH]ccc5c4)c3)CC2)=C(c2ccc(Cl)cc2)C1 (stereo not shown) [Example 78, 4-(4-{[2-(4-chlorophenyl)-4,4-dimethylcyclohex-1-en-1-yl]methyl}piperazin-1-yl)-N-{[4-(morpholin-3-ylmethoxy)-3-nitrophenyl]sulfonyl}-2-(1H-pyrrolo[2,3-b]pyridin-5-yloxy)benzamide]",0.0125,–
"CC1(C)CCC(CN2CCN(c3ccc(C(=O)NS(=O)(=O)c4cnc(NC5CCN(C6CC6)CC5)c(Cl)c4)c(Oc4cnc5[nH]ccc5c4)c3)CC2)=C(c2ccc(Cl)cc2)C1 [Example 243, N-({5-chloro-6-[(1-cyclopropylpiperidin-4-yl)amino]pyridin-3-yl}sulfonyl)-4-(4-{[2-(4-chlorophenyl)-4,4-dimethylcyclohex-1-en-1-yl]methyl}piperazin-1-yl)-2-(1H-pyrrolo[2,3-b]pyridin-5-yloxy)benzamide]",0.807,–
"CC1(C)CCC(CN2CCN(c3ccc(C(=O)NS(=O)(=O)c4cc(Cl)c(NCC5CCOCC5)c(C#N)c4)c(Oc4cnc5[nH]ccc5c4)c3)CC2)=C(c2ccc(Cl)cc2)C1 [Example 52, N-({3-chloro-5-cyano-4-[(tetrahydro-2H-pyran-4-ylmethyl)amino]phenyl}sulfonyl)-4-(4-{[2-(4-chlorophenyl)-4,4-dimethylcyclohex-1-en-1-yl]methyl}piperazin-1-yl)-2-(1H-pyrrolo[2,3-b]pyridin-5-yloxy)benzamide]",0.2,–
"CC1(C)CCC(CN2CCN(c3ccc(C(=O)NS(=O)(=O)c4ccc(NN5CCN(C6COC6)CC5)c([N+](=O)[O-])c4)c(Oc4cnc5[nH]ccc5c4)c3)CC2)=C(c2ccc(Cl)cc2)C1 [Example 236, 4-(4-{[2-(4-chlorophenyl)-4,4-dimethylcyclohex-1-en-1-yl]methyl}piperazin-1-yl)-N-[(3-nitro-4-{[4-(oxetan-3-yl)piperazin-1-yl]amino}phenyl)sulfonyl]-2-(1H-pyrrolo[2,3-b]pyridin-5-yloxy)benzamide]",0.0429,–
"COCCN1CCOC(CNc2ccc(S(=O)(=O)NC(=O)c3ccc(N4CCN(CC5=C(c6ccc(Cl)cc6)CC(C)(C)CC5)CC4)cc3Oc3cnc4[nH]ccc4c3)cc2[N+](=O)[O-])C1 (stereo not shown) [Example 135, 4-(4-{[2-(4-chlorophenyl)-4,4-dimethylcyclohex-1-en-1-yl]methyl}piperazin-1-yl)-N-{[4-({[4-(2-methoxyethyl)morpholin-2-yl]methyl}amino)-3-nitrophenyl]sulfonyl}-2-(1H-pyrrolo[2,3-b]pyridin-5-yloxy)benzamide]",0.00237,–
"COCCNc1ccc(S(=O)(=O)NC(=O)c2ccc(N3CCN(CC4=C(c5ccc(Cl)cc5)CC(C)(C)CC4)CC3)cc2Oc2cnc3[nH]ccc3c2)cc1S(=O)(=O)C(F)(F)F [Example 16, 4-(4-{[2-(4-chlorophenyl)-4,4-dimethylcyclohex-1-en-1-yl]methyl}piperazin-1-yl)-N-({4-[(2-methoxyethyl)amino]-3-[(trifluoromethyl)sulfonyl]phenyl}sulfonyl)-2-(1H-pyrrolo[2,3-b]pyridin-5-yloxy)benzamide]",1.21,1.21
"CC1(C)CCC(CN2CCN(c3ccc(C(=O)NS(=O)(=O)c4cnc(OC5CCN(C6CCOCC6)CC5)c(C#N)c4)c(Oc4cnc5[nH]ccc5c4)c3)CC2)=C(c2ccc(Cl)cc2)C1 [Example 84, 4-(4-{[2-(4-chlorophenyl)-4,4-dimethylcyclohex-1-en-1-yl]methyl}piperazin-1-yl)-N-({5-cyano-6-[(1-tetrahydro-2H-pyran-4-ylpiperidin-4-yl)oxy]pyridin-3-yl}sulfonyl)-2-(1H-pyrrolo[2,3-b]pyridin-5-yloxy)benzamide]",0.158,–
"CC1(C)CCC(c2ccc(Cl)cc2)=C(CN2CCN(c3ccc(C(=O)NS(=O)(=O)c4ccc(OCC5(F)CCOCC5)c([N+](=O)[O-])c4)c(Oc4cnc5[nH]ccc5c4)c3)CC2)C1 [Example 119, 4-(4-{[2-(4-chlorophenyl)-5,5-dimethylcyclohex-1-en-1-yl]methyl}piperazin-1-yl)-N-({4-[(4-fluorotetrahydro-2H-pyran-4-yl)methoxy]-3-nitrophenyl}sulfonyl)-2-(1H-pyrrolo[2,3-b]pyridin-5-yloxy)benzamide]",0.0114,–
